According to patent US20250090573A1, “COMPOSITIONS FOR DELIVERING NITRIC OXIDE AND FLUORIDE AND METHODS FOR MAKING AND USING THE SAME” (University of Georgia Research Foundation, Inc., priority 2022, published 2025):

Assays:
[1] = test system: HGF; type: cell-based; conditions: human, 24 h
Description: (§1) The cell lines HGF and hFOB 1.19 were cultured for cytocompatibility assessments. HGF cells were cultured in fibroblast basal medium supplemented with the manufacturer's recommended growth kit (2% fetal bovine serum, 50 μg/mL ascorbic acid, 5 μg/mL rh insulin, […] hydrocortisone hemisuccinate, 5 ng/mL rh FGF b, and 7.5 mM L-glutamine) and penicillin-streptomycin (10 units/mL and 10 μg/mL, respectively). hFOB 1.19 cells were maintained in a 1:1 mixture of Ham's F12 Medium and Dulbecco's Modified Eagle's Medium supplemented with L-glutamine (2.5 mM), fetal bovine serum (10%) and G418 (0.3 mg/mL). Both cell types were incubated at 37° C. in a 5% CO2 humified atmosphere. Medium was replaced every 48 h and both cell lines were subcultured once monolayers were 80% confluent. Cells were detached from the flask surface via enzymatic treatment with 0.05% trypsin and 5 mM EDTA for 5 min, with isolation of cell pellets via centrifugation at 200 RCF for 5 min.
(§2) The cellular cytotoxicity of GSNO against HGF and hFOB 1.19 cells was tested over 24 h direct contact experiments. […] A separate set of wells containing only media and the dye (n=5) were also prepared to account for background readings. The absorbance of each well was measured at 450 nm, adjusted against the average absorbance reading of the wells with only media. […]

[2] = test system: hFOB 1.19; assay: Cellular cytotoxicity of GSNO and precursor sol materials (CCK-8); type: cell-based, human; conditions: hFOB 1.19 cells, direct contact exposure
Description: as §1, §2

[3] = GSNO/NO loading by chemiluminescence NO analyzer (Cu1+ depletion); type: physicochemical; conditions: hydrogel precursor sol, aqueous with cosolvent or surfactant or cyclodextrin; read-out: GSNO sol concentration after which solubility is incomplete

solubility [3]: ≤ 30 mg/mL
SMILES: N[C@@H](CCC(=O)N[C@@H](CSN=O)C(=O)NCC(=O)O)C(=O)O [GSNO, S-Nitrosoglutathione]
GSNO treatment eliciting cytotoxic response [1]: greater than 100 μg/mL
GSNO treatment eliciting cytotoxic response [2]: ~400 µg/mL
